Numbers after ± are expanded uncertainties.
Assays:
[1] = 308.15 K, 101.33 kPa, Liquid; for speed of sound: Pulse-echo method
[2] = xn = mol fraction of the nth substance listed; conditions: 308.15 K, 101 kPa, Liquid; for speed of sound: Pulse-echo method

OCCCCO [1,4-butanediol]
[1]
Conditions | mass density [kg/m3] | speed of sound [m/s] | viscosity [mPa·s]
– | 1003.95 ± 0.54 | 1577.8 ± 1.5 | 47.38 ± 1.4

OCCCCO [1,4-butanediol] + O=C1CCCN1
[2]
Conditions | excess molar volume [m3/mol] | speed of sound [m/s] | viscosity [mPa·s]
x2 = 0.0144 | -1e-09 ± 9e-09 | – | –
x2 = 0.0265 | – | 1579.3 ± 1.5 | 44.47 ± 1.3
x2 = 0.0335 | -2e-09 ± 9e-09 | – | –
x2 = 0.0524 | – | 1580.6 ± 1.5 | 42.37 ± 1.2
x2 = 0.0631 | -5e-09 ± 9e-09 | – | –
x2 = 0.0746 | – | 1581.5 ± 1.5 | 40.73 ± 1.1
x2 = 0.0859 | -7e-09 ± 9e-09 | – | –
x2 = 0.099 | – | 1582.3 ± 1.5 | 39.16 ± 1.1
x2 = 0.1034 | -1.2e-08 ± 9e-09 | – | –
x2 = 0.1244 | -1.6e-08 ± 9e-09 | – | –
x2 = 0.133 | -1.8e-08 ± 9e-09 | – | –
x2 = 0.1495 | -2.2e-08 ± 9e-09 | – | –
x2 = 0.1515 | – | 1583.7 ± 1.5 | 35.63 ± 0.97
x2 = 0.1707 | -2.4e-08 ± 9e-09 | – | –
x2 = 0.1835 | -2.6e-08 ± 9e-09 | – | –
x2 = 0.1968 | -2.7e-08 ± 9e-09 | – | –
x2 = 0.197 | – | 1585.2 ± 1.5 | 32.87 ± 0.88
x2 = 0.2205 | -2.8e-08 ± 9e-09 | – | –
x2 = 0.2428 | -2.9e-08 ± 9e-09 | – | –
x2 = 0.2649 | -2.7e-08 ± 9e-09 | – | –
x2 = 0.2863 | -2.6e-08 ± 9e-09 | – | –
x2 = 0.2914 | – | 1587.8 ± 1.5 | 27.93 ± 0.73
x2 = 0.3121 | -2.6e-08 ± 9e-09 | – | –
x2 = 0.3339 | -2.2e-08 ± 9e-09 | – | –
x2 = 0.3582 | -2e-08 ± 9e-09 | – | –
x2 = 0.384 | -1.5e-08 ± 9e-09 | – | –
x2 = 0.3911 | – | 1589.6 ± 1.5 | 23.57 ± 0.61
x2 = 0.4202 | -1.1e-08 ± 9e-09 | – | –
x2 = 0.4438 | -9e-09 ± 9e-09 | – | –
x2 = 0.4533 | – | 1590.3 ± 1.5 | –
x2 = 0.4656 | -7e-09 ± 9e-09 | – | –
x2 = 0.4771 | -4e-09 ± 9e-09 | – | –
x2 = 0.4954 | -2e-09 ± 9e-09 | – | –
x2 = 0.5159 | -2e-09 ± 9e-09 | – | –
x2 = 0.5237 | – | 1591.3 ± 1.5 | 19.22 ± 0.49
x2 = 0.527 | 0 ± 9e-09 | – | –
x2 = 0.5409 | 1e-09 ± 9e-09 | – | –
x2 = 0.5644 | 4e-09 ± 9e-09 | – | –
x2 = 0.5753 | 6e-09 ± 9e-09 | – | –
x2 = 0.5886 | 7e-09 ± 9e-09 | – | –
x2 = 0.5997 | – | 1592.6 ± 1.5 | 17.1 ± 0.44
x2 = 0.6032 | 8e-09 ± 9e-09 | – | –
x2 = 0.6155 | 1e-08 ± 9e-09 | – | –
x2 = 0.6273 | 1.3e-08 ± 9e-09 | – | –
x2 = 0.6452 | 2e-08 ± 9e-09 | – | –
x2 = 0.6685 | 2.2e-08 ± 9e-09 | – | –
x2 = 0.6788 | 2.3e-08 ± 9e-09 | – | –
x2 = 0.6904 | – | 1593.7 ± 1.5 | 14.81 ± 0.38
x2 = 0.6925 | 2.4e-08 ± 9e-09 | – | –
x2 = 0.7159 | 2.5e-08 ± 9e-09 | – | –
x2 = 0.7338 | 2.6e-08 ± 9e-09 | – | –
x2 = 0.7494 | 2.7e-08 ± 9e-09 | – | –
x2 = 0.7878 | – | 1595 ± 1.5 | 12.92 ± 0.33
x2 = 0.8877 | – | 1596.8 ± 1.5 | 10.74 ± 0.28
x2 = 0.9305 | – | 1598 ± 1.5 | 10.14 ± 0.26
x2 = 0.9481 | – | 1598.5 ± 1.5 | 9.772 ± 0.26
x2 = 0.9741 | – | 1599.2 ± 1.5 | 9.275 ± 0.24

CC(O)C(C)O (centres undefined) [2,3-butanediol]
[1]
Conditions | mass density [kg/m3] | speed of sound [m/s] | viscosity [mPa·s]
– | 990.72 ± 1 | 1456.6 ± 2.3 | 51.38 ± 1.1

CC(O)C(C)O (centres undefined) [2,3-butanediol] + O=C1CCCN1
[2]
Conditions | excess molar volume [m3/mol] | speed of sound [m/s] | viscosity [mPa·s]
x2 = 0.0199 | 1.9e-08 ± 9e-09 | – | –
x2 = 0.0255 | – | 1458.7 ± 2.2 | 46.85 ± 1.4
x2 = 0.0339 | 3.3e-08 ± 9e-09 | – | –
x2 = 0.0483 | 4.5e-08 ± 1e-08 | – | –
x2 = 0.0507 | – | 1460.7 ± 2.2 | 41.26 ± 1.2
x2 = 0.0634 | 5.4e-08 ± 1e-08 | – | –
x2 = 0.0737 | 6e-08 ± 1e-08 | – | –
x2 = 0.0765 | – | 1463 ± 2.2 | 39.43 ± 1.1
x2 = 0.0885 | 7.5e-08 ± 1e-08 | – | –
x2 = 0.1001 | – | 1466.3 ± 2.2 | 37.32 ± 1.1
x2 = 0.1008 | 8.2e-08 ± 1e-08 | – | –
x2 = 0.1118 | 8.7e-08 ± 1e-08 | – | –
x2 = 0.118 | 9.3e-08 ± 1e-08 | – | –
x2 = 0.1313 | 9.9e-08 ± 1e-08 | – | –
x2 = 0.1447 | 1.06e-07 ± 1e-08 | – | –
x2 = 0.1489 | – | 1470.5 ± 2.1 | 32.26 ± 0.9
x2 = 0.1571 | 1.12e-07 ± 1e-08 | – | –
x2 = 0.1702 | 1.17e-07 ± 1e-08 | – | –
x2 = 0.185 | 1.29e-07 ± 1e-08 | – | –
x2 = 0.1941 | – | 1475.2 ± 2.1 | 28.87 ± 0.79
x2 = 0.2191 | 1.39e-07 ± 1e-08 | – | –
x2 = 0.2418 | 1.48e-07 ± 1e-08 | – | –
x2 = 0.2675 | 1.54e-07 ± 1e-08 | – | –
x2 = 0.2854 | 1.59e-07 ± 1e-08 | – | –
x2 = 0.2955 | – | 1488.2 ± 2 | 23.79 ± 0.64
x2 = 0.3058 | 1.63e-07 ± 1e-08 | – | –
x2 = 0.3226 | 1.67e-07 ± 1e-08 | – | –
x2 = 0.3312 | 1.68e-07 ± 1e-08 | – | –
x2 = 0.3459 | 1.71e-07 ± 1e-08 | – | –
x2 = 0.3589 | 1.72e-07 ± 1e-08 | – | –
x2 = 0.383 | 1.72e-07 ± 1e-08 | – | –
x2 = 0.3899 | – | 1500.7 ± 1.9 | 19.82 ± 0.52
x2 = 0.3973 | 1.72e-07 ± 1e-08 | – | –
x2 = 0.4043 | 1.73e-07 ± 1e-08 | – | –
x2 = 0.4156 | 1.72e-07 ± 1e-08 | – | –
x2 = 0.4506 | 1.71e-07 ± 1e-08 | – | –
x2 = 0.4667 | 1.7e-07 ± 1e-08 | – | –
x2 = 0.4926 | 1.69e-07 ± 1e-08 | – | –
x2 = 0.5097 | 1.7e-07 ± 1e-08 | – | –
x2 = 0.5261 | 1.7e-07 ± 1e-08 | – | –
x2 = 0.5294 | – | 1520.3 ± 1.8 | 16.06 ± 0.42
x2 = 0.5431 | 1.67e-07 ± 1e-08 | – | –
x2 = 0.5651 | 1.68e-07 ± 1e-08 | – | –
x2 = 0.5844 | 1.65e-07 ± 1e-08 | – | –
x2 = 0.5898 | – | 1529.2 ± 1.8 | 14.65 ± 0.38
x2 = 0.6052 | 1.6e-07 ± 1e-08 | – | –
x2 = 0.6266 | 1.58e-07 ± 1e-08 | – | –
x2 = 0.6501 | 1.52e-07 ± 1e-08 | – | –
x2 = 0.6693 | 1.51e-07 ± 1e-08 | – | –
x2 = 0.6894 | 1.45e-07 ± 1e-08 | – | –
x2 = 0.6978 | – | 1546.9 ± 1.7 | 12.54 ± 0.33
x2 = 0.8089 | – | 1565.1 ± 1.6 | 11.22 ± 0.29
x2 = 0.8587 | – | 1573.7 ± 1.6 | 10.53 ± 0.27
x2 = 0.9067 | – | 1582 ± 1.6 | 9.623 ± 0.25
x2 = 0.9497 | – | 1590.4 ± 1.5 | 9.337 ± 0.24
x2 = 0.9702 | – | 1594.2 ± 1.5 | 9.114 ± 0.24

O=C1CCCN1 [2-pyrrolidinone]
[1]
Conditions | mass density [kg/m3] | speed of sound [m/s] | viscosity [mPa·s]
– | 1097.14 ± 0.66 | 1600 ± 1.5 | 8.922 ± 0.23

— the NIST ThermoML archive (doi:10.1016/j.jct.2004.11.020)
